Test results from ChEMBL document CHEMBL1201862, “PubChem BioAssay data set” (2004).
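The compound was tested at five concentrations on cells cultured in 96-well plates, with a 48-hour exposure period. GI50 is the concentration that inhibits growth by half.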 The source made the active and inactive calls. No stated cut-off is given here; in the data, active = GI50 up to about 1.1 µM and inactive = higher.

Experiments:
Experiment in all cases: NCI tumour cell line growth inhibition, 48 h
NCI-H522 = system: NCI-H522
NCI-H460 = system: NCI-H460
OVCAR-5 = system: OVCAR-5
SK-MEL-5 = system: SK-MEL-5
LOX IMVI = system: LOX IMVI
SNB-75 = system: SNB-75
SR = system: SR
CAKI-1 = system: CAKI-1
SNB-78 = system: SNB-78
OVCAR-3 = system: OVCAR-3
HOP-92 = system: HOP-92
A498 = system: A498
HCT-116 = system: HCT-116
ACHN = system: ACHN
HOP-62 = system: HOP-62
M19-MEL = system: M19-MEL
U-251 = system: U-251
SF-539 = system: SF-539
NCI-H23 = system: NCI-H23
IGROV-1 = system: IGROV-1
KM-20L2 = system: KM-20L2
DMS-114 = system: DMS-114
RPMI-8226 = system: RPMI-8226
K562 = system: K562
SF-295 = system: SF-295
HCT-15 = system: HCT-15
CCRF-CEM = system: CCRF-CEM
786-0 = system: 786-0
XF498 = system: XF498
SF-268 = system: SF-268
UACC-62 = system: UACC-62
DMS-273 = system: DMS-273
EKVX = system: EKVX
SK-MEL-2 = system: SK-MEL-2
SW-620 = system: SW-620
UO-31 = system: UO-31
SN12C = system: SN12C
SK-OV-3 = system: SK-OV-3
HCC 2998 = system: HCC 2998
COLO 205 = system: COLO 205
KM12 = system: KM12
OVCAR-4 = system: OVCAR-4
MOLT-4 = system: MOLT-4
TK-10 = system: TK-10
HOP-18 = system: HOP-18
SK-MEL-28 = system: SK-MEL-28
LXFL 529 = system: LXFL 529
UACC-257 = system: UACC-257
M14 = system: M14
HL-60 = system: HL-60
OVCAR-8 = system: OVCAR-8
NCI-H226 = system: NCI-H226
Malme-3M = system: Malme-3M
RXF 393 = system: RXF 393
SNB-19 = system: SNB-19
DLD-1 = system: DLD-1
A549 = system: A549
HT-29 = system: HT-29
NCI/ADR-RES = system: NCI/ADR-RES
MDA-MB-435 = system: MDA-MB-435
MDA-MB-231 = system: MDA-MB-231
T47D = system: T47D
PC-3 = system: PC-3
Hs-578T = system: Hs-578T
MCF7 = system: MCF7
MDA-N = system: MDA-N
DU-145 = system: DU-145
BT-549 = system: BT-549

C=C1C(=O)OC2CC3(C)C=CC(=O)C(=C)C3CC12 (centres undefined)
GI50 (NCI-H522): 0.47 µM (active) | GI50 (NCI-H460): 2.59 µM (inactive) | GI50 (OVCAR-5): 3.24 µM (inactive) | GI50 (SK-MEL-5): 1.72 µM (inactive) | GI50 (LOX IMVI): 0.516 µM (active) | GI50 (SNB-75): 3.73 µM (inactive) | GI50 (SR): 0.938 µM (active) | GI50 (CAKI-1): 1.36 µM (inactive) | GI50 (SNB-78): 2.43 µM (inactive) | GI50 (OVCAR-3): 2.32 µM (inactive) | GI50 (HOP-92): 1.91 µM (inactive) | GI50 (A498): 7.46 µM (inactive) | GI50 (HCT-116): 1.28 µM (inactive) | GI50 (ACHN): 1.72 µM (inactive) | GI50 (HOP-62): 14.7 µM (inactive) | GI50 (M19-MEL): 1.69 µM (inactive) | GI50 (U-251): 3.79 µM (inactive) | GI50 (SF-539): 1.53 µM (inactive) | GI50 (NCI-H23): 1.69 µM (inactive) | GI50 (IGROV-1): 2.28 µM (inactive) | GI50 (KM-20L2): 2.28 µM (inactive) | GI50 (DMS-114): 3.61 µM (inactive) | GI50 (RPMI-8226): 0.589 µM (active) | GI50 (K562): 1.71 µM (inactive) | GI50 (SF-295): 13.9 µM (inactive) | GI50 (HCT-15): 1.71 µM | GI50 (CCRF-CEM): 0.317 µM (active) | GI50 (786-0): 1.76 µM (inactive) | GI50 (XF498): 1.72 µM (inactive) | GI50 (SF-268): 2.59 µM (inactive) | GI50 (UACC-62): 1.5 µM (inactive) | GI50 (DMS-273): 1.22 µM (inactive) | GI50 (EKVX): 2.77 µM (inactive) | GI50 (SK-MEL-2): 1.67 µM (inactive) | GI50 (SW-620): 1.04 µM (active) | GI50 (UO-31): 1.75 µM (inactive) | GI50 (SN12C): 1.69 µM (inactive) | GI50 (SK-OV-3): 20.8 µM (inactive) | GI50 (HCC 2998): 2.6 µM (inactive) | GI50 (COLO 205): 1.63 µM (inactive) | GI50 (KM12): 2.08 µM (inactive) | GI50 (OVCAR-4): 2.18 µM (inactive) | GI50 (MOLT-4): 1.03 µM (active) | GI50 (TK-10): 2.15 µM (inactive) | GI50 (HOP-18): 3.06 µM (inactive) | GI50 (SK-MEL-28): 1.77 µM (inactive) | GI50 (LXFL 529): 0.664 µM (active) | GI50 (UACC-257): 1.64 µM (inactive) | GI50 (M14): 1.46 µM (inactive) | GI50 (HL-60): 0.769 µM (active) | GI50 (OVCAR-8): 1.55 µM (inactive) | GI50 (NCI-H226): 12.1 µM (inactive) | GI50 (Malme-3M): 1.99 µM (inactive) | GI50 (RXF 393): 2.03 µM (inactive) | GI50 (SNB-19): 8.55 µM (inactive) | GI50 (DLD-1): 0.329 µM (active) | GI50 (A549): 5.62 µM (inactive) | GI50 (HT-29): 1.65 µM (inactive)

Cc1cccc(C(C)(C)C)c1NC(=O)C(C#N)C1=C(Cl)C(=O)c2ccccc2C1=O (centres undefined)
GI50 (NCI-H522): 13.8 µM (inactive) | GI50 (NCI-H460): 19.2 µM (inactive) | GI50 (NCI/ADR-RES): 16.6 µM (inactive) | GI50 (OVCAR-5): 17.9 µM (inactive) | GI50 (SK-MEL-5): 17 µM (inactive) | GI50 (LOX IMVI): 16.3 µM (inactive) | GI50 (MDA-MB-435): 16.7 µM (inactive) | GI50 (SNB-75): 13.7 µM (inactive) | GI50 (SR): 3.38 µM (inactive) | GI50 (CAKI-1): 16.7 µM (inactive) | GI50 (MDA-MB-231): 14 µM (inactive) | GI50 (T47D): 9.95 µM (inactive) | GI50 (SNB-78): 14.4 µM (inactive) | GI50 (PC-3): 13.5 µM (inactive) | GI50 (OVCAR-3): 15.7 µM (inactive) | GI50 (Hs-578T): 21.1 µM (inactive) | GI50 (HOP-92): 3.93 µM (inactive) | GI50 (A498): 24.9 µM (inactive) | GI50 (HCT-116): 14.1 µM (inactive) | GI50 (ACHN): 14.5 µM (inactive) | GI50 (HOP-62): 17.7 µM (inactive) | GI50 (U-251): 16.9 µM (inactive) | GI50 (SF-539): 18.1 µM (inactive) | GI50 (NCI-H23): 15.8 µM (inactive) | GI50 (IGROV-1): 18.4 µM (inactive) | GI50 (KM-20L2): 20.5 µM (inactive) | GI50 (DMS-114): 16.6 µM (inactive) | GI50 (RPMI-8226): 8.83 µM (inactive) | GI50 (K562): 3.05 µM (inactive) | GI50 (SF-295): 15.9 µM (inactive) | GI50 (CCRF-CEM): 0.843 µM (active) | GI50 (786-0): 16.2 µM (inactive) | GI50 (XF498): 16 µM (inactive) | GI50 (SF-268): 17.1 µM (inactive) | GI50 (UACC-62): 18.2 µM (inactive) | GI50 (MCF7): 15.8 µM (inactive) | GI50 (DMS-273): 17.8 µM (inactive) | GI50 (EKVX): 12.5 µM (inactive) | GI50 (MDA-N): 14.4 µM (inactive) | GI50 (SK-MEL-2): 16.1 µM (inactive) | GI50 (SW-620): 14.5 µM (inactive) | GI50 (UO-31): 14.7 µM (inactive) | GI50 (SN12C): 17.3 µM (inactive) | GI50 (DU-145): 22 µM (inactive) | GI50 (SK-OV-3): 15.8 µM (inactive) | GI50 (HCC 2998): 15.7 µM (inactive) | GI50 (COLO 205): 17.5 µM (inactive) | GI50 (KM12): 16.3 µM (inactive) | GI50 (OVCAR-4): 15.4 µM (inactive) | GI50 (MOLT-4): 2.74 µM (inactive) | GI50 (TK-10): 19.1 µM (inactive) | GI50 (HOP-18): 12 µM (inactive) | GI50 (SK-MEL-28): 16.9 µM (inactive) | GI50 (LXFL 529): 15.5 µM (inactive) | GI50 (UACC-257): 15.6 µM (inactive) | GI50 (M14): 18 µM (inactive) | GI50 (HL-60): 2.03 µM (inactive) | GI50 (OVCAR-8): 18.2 µM (inactive) | GI50 (BT-549): 14.3 µM (inactive) | GI50 (NCI-H226): 9.66 µM (inactive) | GI50 (Malme-3M): 17.2 µM (inactive) | GI50 (RXF 393): 16.9 µM (inactive) | GI50 (SNB-19): 18.3 µM (inactive) | GI50 (DLD-1): 14.4 µM (inactive) | GI50 (A549): 21.7 µM (inactive) | GI50 (HT-29): 20.8 µM (inactive)
